Literature values as cited in publication PMC5014611 (Bioorganic & medicinal chemistry, 2016).

Molecular target: T1, human GIVA cPLA2 (Homo sapiens, UniProt P47712)
T1 sequence (P47712 1-749): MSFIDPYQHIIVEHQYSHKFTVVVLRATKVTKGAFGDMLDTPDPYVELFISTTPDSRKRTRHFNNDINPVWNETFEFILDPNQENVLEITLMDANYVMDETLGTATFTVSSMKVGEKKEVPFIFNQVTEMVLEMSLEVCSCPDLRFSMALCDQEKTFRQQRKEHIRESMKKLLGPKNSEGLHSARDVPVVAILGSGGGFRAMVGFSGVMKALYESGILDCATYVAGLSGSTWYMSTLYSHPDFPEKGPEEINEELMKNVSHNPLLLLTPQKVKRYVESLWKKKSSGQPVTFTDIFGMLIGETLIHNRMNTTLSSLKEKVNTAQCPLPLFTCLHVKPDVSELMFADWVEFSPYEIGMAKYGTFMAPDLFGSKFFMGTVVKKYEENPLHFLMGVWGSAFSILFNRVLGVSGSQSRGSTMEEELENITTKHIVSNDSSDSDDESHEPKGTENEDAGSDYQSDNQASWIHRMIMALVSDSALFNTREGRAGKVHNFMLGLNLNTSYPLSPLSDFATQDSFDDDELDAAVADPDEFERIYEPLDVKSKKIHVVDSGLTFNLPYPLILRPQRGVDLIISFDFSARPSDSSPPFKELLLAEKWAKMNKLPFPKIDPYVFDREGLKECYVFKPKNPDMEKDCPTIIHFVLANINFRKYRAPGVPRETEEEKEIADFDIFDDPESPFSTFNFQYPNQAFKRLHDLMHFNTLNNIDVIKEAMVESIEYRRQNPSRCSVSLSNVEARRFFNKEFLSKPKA
Conditions: commercially available inhibitor

GIVA cPLA2 XI(50): 0.036 mole fraction
SMILES: CCCCC/C=C\C/C=C\C/C=C\C/C=C\CCCC(=O)C(F)(F)F [AATFMK, arachidonoyl trifluoromethyl ketone]
